The values that follow come from ChEMBL document CHEMBL1201862, “PubChem BioAssay data set” (2004).

Structures are written as SMILES. Calls of active or inactive are those of the source. Where only a bound is given, the exact number is not on record here.

A short description of experiment [1]: HEp-2 cell cytotoxicity, dose response, cytotoxicity control for RSV inhibitor project, HTS (AID 2410). Particulars: human respiratory syncytial virus. It is filed as functional.
Experiment [2] addresses T1, Short transient receptor potential channel 4 (Mus musculus, UniProt Q9QUQ5).
T1 sequence (Q9QUQ5 whole entry): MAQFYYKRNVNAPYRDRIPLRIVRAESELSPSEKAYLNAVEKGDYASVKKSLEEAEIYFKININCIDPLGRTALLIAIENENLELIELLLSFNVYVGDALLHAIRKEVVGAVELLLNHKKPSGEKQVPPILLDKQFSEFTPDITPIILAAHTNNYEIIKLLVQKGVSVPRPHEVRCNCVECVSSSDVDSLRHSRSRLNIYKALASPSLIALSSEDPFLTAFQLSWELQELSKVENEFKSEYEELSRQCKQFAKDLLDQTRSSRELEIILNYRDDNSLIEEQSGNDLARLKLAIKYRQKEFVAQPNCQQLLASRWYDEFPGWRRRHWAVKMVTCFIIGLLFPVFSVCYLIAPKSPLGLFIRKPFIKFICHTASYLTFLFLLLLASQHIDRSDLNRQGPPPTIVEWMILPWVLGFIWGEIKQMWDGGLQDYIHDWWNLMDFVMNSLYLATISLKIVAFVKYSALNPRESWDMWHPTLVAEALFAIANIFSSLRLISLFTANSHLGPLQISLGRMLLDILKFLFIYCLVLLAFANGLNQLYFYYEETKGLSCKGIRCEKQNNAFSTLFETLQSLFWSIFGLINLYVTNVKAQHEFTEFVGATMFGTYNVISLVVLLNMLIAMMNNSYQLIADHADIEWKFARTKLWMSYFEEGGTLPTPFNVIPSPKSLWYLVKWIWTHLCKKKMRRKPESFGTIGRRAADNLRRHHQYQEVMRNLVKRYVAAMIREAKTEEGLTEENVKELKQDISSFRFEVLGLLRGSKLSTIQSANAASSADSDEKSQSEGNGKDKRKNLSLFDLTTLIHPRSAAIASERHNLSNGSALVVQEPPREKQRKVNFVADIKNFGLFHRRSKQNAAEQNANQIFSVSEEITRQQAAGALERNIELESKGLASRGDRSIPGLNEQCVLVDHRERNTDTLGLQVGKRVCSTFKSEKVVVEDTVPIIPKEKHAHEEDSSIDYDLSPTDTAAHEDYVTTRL
Kind of experiment: mouse TRPC4 channel inhibitors, dose response, cell-based, HEK293 TRPC4/mu-opioid, Fluo-4 calcium (AID 434942).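 Also: potency of inhibitors blocking the TRPC4 calcium response.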 It is filed as functional.

The target in experiment [3] is DNA dC->dU-editing enzyme APOBEC-3G (Homo sapiens, UniProt Q9HC16). Nature of the experiment: Dose Response confirmation of small molecule APOBEC3G DNA Deaminase Inhibitors via a fluorescence-based single-stranded DNA deaminase assay. [Related pubchem assays (depositor defined):AID493012, AID493028]. Type of experiment: functional.
DNA dC->dU-editing enzyme APOBEC-3G, sequence (Q9HC16 whole entry): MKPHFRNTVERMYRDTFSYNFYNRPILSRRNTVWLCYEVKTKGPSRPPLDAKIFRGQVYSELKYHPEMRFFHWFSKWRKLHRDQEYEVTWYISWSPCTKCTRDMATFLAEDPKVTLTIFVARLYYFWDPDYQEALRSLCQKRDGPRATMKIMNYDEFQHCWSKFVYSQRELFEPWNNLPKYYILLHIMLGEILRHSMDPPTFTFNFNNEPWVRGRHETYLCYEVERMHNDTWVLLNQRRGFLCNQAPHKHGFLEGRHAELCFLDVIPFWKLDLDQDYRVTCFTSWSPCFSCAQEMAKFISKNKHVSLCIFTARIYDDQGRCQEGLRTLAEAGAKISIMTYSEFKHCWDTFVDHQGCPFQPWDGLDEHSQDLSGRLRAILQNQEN
Experiment [4] deals with DNA dC->dU-editing enzyme APOBEC-3A (Homo sapiens, UniProt P31941). Kind of experiment: APOBEC3A DNA deaminase inhibitors, dose response, biochemical (AID 504722). It is filed as functional.
DNA dC->dU-editing enzyme APOBEC-3A, sequence (P31941 whole entry): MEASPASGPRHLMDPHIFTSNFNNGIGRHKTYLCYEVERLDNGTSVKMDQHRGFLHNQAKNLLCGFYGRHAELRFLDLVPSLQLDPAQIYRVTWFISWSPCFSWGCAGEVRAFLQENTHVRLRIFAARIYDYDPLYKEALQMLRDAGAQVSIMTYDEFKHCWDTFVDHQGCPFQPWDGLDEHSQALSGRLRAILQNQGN
The target in experiment [5] is SUMO-activating enzyme (Homo sapiens, UniProt Q9UBT2). Nature of the experiment: SUMOylation inhibitor hit validation, confirmation, SUMOylation inhibitor project, biochemical, AlphaScreen (AID 2018). It is filed as functional. In general terms: In Alpha technology, singlet oxygen from a donor bead excites a nearby acceptor bead.
SUMO-activating enzyme, sequence (Q9UBE0 whole entry): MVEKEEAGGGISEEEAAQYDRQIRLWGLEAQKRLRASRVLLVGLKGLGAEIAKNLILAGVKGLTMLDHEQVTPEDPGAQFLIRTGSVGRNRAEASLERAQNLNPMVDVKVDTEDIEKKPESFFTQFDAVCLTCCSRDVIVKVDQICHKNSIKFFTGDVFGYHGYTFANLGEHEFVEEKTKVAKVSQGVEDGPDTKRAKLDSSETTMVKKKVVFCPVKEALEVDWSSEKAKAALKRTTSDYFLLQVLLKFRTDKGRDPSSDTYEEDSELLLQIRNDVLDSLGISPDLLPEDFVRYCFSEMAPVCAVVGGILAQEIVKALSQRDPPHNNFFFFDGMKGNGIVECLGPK
SUMO-activating enzyme, sequence (Q9UBT2 whole entry): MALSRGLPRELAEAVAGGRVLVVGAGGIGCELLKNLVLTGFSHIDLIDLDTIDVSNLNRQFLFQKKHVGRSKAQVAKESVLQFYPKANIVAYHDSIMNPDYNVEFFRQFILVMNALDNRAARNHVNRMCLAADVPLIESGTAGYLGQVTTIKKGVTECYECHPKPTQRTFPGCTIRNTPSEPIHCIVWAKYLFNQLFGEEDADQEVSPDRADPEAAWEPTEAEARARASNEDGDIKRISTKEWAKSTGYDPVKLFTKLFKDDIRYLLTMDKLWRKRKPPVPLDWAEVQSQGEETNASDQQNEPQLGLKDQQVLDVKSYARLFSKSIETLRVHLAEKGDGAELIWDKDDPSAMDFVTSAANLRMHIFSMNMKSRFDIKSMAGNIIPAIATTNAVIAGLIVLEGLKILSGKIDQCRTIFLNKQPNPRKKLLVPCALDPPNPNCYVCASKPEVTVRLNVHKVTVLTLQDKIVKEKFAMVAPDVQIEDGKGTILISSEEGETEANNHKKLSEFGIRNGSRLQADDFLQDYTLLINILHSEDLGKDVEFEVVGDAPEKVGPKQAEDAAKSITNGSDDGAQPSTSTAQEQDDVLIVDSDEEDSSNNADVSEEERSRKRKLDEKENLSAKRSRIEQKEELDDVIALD
The subject of experiment [6] is Vero. Nature of the experiment: cells. It is filed as functional. Particulars: Chlorocebus sabaeus.
Experiment [7] deals with Vero. Nature of the experiment: cells. Type of experiment: functional, cell-based. The note with it: Chlorocebus sabaeus.
For experiment [8], the system named is Streptococcus. Kind of experiment: Group A Streptococcus viability loss, dose response, counter-screen for streptokinase expression inhibitor project, luminescence, BacTiterGlo (AID 1915).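 Also: potency for reduction of bacterial viability or growth.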 Type of experiment: functional, organism-based.
A short description of experiment [9]: THP-1 cell cytotoxicity, dose response, cytotoxicity control for non-replicating M. tuberculosis project (AID 489025). It is filed as functional.
The target of experiment [10] is T2, Streptokinase A (Streptococcus pyogenes serotype M1, UniProt P10520).
T2 sequence (P10520 whole entry): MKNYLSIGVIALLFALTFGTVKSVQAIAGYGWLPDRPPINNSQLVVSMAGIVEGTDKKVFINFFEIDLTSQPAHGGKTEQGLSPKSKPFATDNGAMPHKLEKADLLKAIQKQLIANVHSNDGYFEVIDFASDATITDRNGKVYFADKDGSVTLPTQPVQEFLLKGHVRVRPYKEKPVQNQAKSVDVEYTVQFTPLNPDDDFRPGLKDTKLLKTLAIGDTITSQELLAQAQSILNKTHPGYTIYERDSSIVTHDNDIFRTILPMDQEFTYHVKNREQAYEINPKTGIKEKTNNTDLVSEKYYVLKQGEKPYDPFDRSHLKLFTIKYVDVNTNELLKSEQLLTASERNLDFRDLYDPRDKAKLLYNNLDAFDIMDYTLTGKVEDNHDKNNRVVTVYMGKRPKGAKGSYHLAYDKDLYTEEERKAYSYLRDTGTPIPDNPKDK
Kind of experiment: S. pyogenes streptokinase expression inhibitors, potency, dose response, plasminogen activation absorbance, OD405 (AID 1914).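 Also: secreted streptokinase activity via plasminogen activation per viability signal from cell pellet.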 It is filed as functional, Streptococcus pyogenes M1 GAS.

Experiment [11] concerns Streptococcus sp. 'group A'. Kind of experiment: growth inhibition of control SK(-) GAS strain, dose response, counter-screen for streptokinase expression inhibitor project, luminescence, kanamycin, BacTiterGlo, confirmation (AID 1900). It is filed as functional, organism-based. In general terms: The purpose of a counterscreen is to sort out artefacts and off-target activity.

A short description of experiment [12]: cells. It is filed as functional.
A short description of experiment [13]: Vero E6 cell cytotoxicity, dose response, cytotoxicity control for non-replicating M. tuberculosis project, secondary assay (AID 492998). It is filed as functional, VeroE6. The note with it: Vero C1008.
Experiment [14] can be described thus: cytotoxicity in HEK-293T cells, dose response, cytotoxicity control for TCR NF-kB inhibitor project, luminescence, T-cell screen hits (AID 489026).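 Also: cells exposed to compound about 14 hours before the viability readout.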 It is filed as functional, cell-based.
A short description of experiment [15]: intracellular Trypanosoma cruzi inhibitors in host cells – cell-based, plate reader, cherry-pick samples, set 3, dose response (AID 651818).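 Also: compounds incubated with infected cells for about four days.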 It is filed as functional.
The target in experiment [16] is T3, Rac GTPase-activating protein 1 (Homo sapiens, UniProt Q9H0H5).
T3 sequence (Q9H0H5 whole entry): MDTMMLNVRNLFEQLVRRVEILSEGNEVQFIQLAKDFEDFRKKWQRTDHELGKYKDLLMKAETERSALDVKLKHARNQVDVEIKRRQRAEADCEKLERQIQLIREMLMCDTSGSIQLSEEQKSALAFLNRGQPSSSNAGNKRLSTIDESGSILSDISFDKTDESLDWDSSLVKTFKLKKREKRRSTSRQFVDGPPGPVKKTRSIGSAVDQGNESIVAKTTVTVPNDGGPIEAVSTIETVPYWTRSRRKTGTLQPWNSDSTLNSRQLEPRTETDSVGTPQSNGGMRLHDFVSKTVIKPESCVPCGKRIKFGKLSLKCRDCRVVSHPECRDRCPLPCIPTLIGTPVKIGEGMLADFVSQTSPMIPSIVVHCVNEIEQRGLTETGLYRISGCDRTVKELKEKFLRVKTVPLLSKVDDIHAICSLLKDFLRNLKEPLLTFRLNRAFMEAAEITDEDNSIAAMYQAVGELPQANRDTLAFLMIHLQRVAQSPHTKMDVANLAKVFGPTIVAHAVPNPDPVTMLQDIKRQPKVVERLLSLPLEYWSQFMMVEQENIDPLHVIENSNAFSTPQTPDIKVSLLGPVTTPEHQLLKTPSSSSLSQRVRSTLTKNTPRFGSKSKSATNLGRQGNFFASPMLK
Nature of the experiment: MgcRacGAP GTPase-activating activity inhibitors, confirmation, biochemical, ADP Hunter fluorescence, primary and confirmatory (AID 624330). Type of experiment: functional.

For the compound `Clc1cccc(COn2c(-c3ccc(Cl)cc3Cl)nc3ncccc32)c1`, the 50% cytotoxic concentration (CC50) (in general, the concentration giving 50% cytotoxicity) in experiment [1] was 14.4 µM (active). In experiment [2], the concentration giving a half-maximal response (EC50) (in general, the concentration at which the effect is half-maximal) was 5.96 µM (active).

With `Cc1cc(-c2nnc(S)n2-c2ccc(F)cc2)nn1C`, the figures for the IC50 in experiment [3] and in experiment [4] were 16.2 µM (active) and > 100 µM (inactive), respectively.

Turning to `CCOc1cccc(CNCCO)c1OCc1ccc(Cl)cc1`, in [2], the EC50 is 1.88 µM (active).

As to `Nc1c(C(=O)Nc2ccc(Br)cc2)sc2nc(-c3ccco3)ccc12`, the IC50 (in general, the concentration needed to halve the response being measured) in [5] was 22.8 µM (active).

In the case of `COC(=O)C1=C(C)N(Cc2ccccc2)C(=S)N[C@H]1c1ccccc1`, the half-maximal effective concentration (EC50) in experiment [2] was 5.96 µM (active).

For `O=c1c2ccccc2nc(/C=C/c2ccccc2O)n1-c1ccccc1O`, the figures for the CC50 in experiment [6] and in experiment [1] were 20.4 µM (active) and 8.96 µM (active), respectively. For the same compound, the IC50 in experiment [7] was > 25 µM (active).

With `Cc1ccc(CNC(=O)c2ccc([N+](=O)[O-])o2)cc1`, the EC50 was 32.1 µM (active) in [8], 8.63 µM (active) in experiment [10] and 2.42 µM (active) in experiment [11]. The values for the CC50 in [9] and in [13] were 25.5 µM (active) and 5.6 µM (active), respectively. Also, in [12], the IC50 is 0.16 µM (active).

As to `CCOc1ccc(S(=O)(=O)NCc2ccccn2)cc1NC(=O)c1ccccc1`, the IC50 in [14] is > 80 µM (inactive).

Turning to `CCOC(=O)c1ccccc1NS(=O)(=O)c1ccc(OCC)cc1`, the IC50 in experiment [14] is > 80 µM (inactive).

On to `CC(NC(=O)OC(C)(C)C)C(=O)Oc1ccc2ccc(=O)oc2c1` (stereo not drawn), for which the IC50 in experiment [5] is > 100 µM (inactive).

Consider `C=CCn1c(-c2ccc([N+](=O)[O-])cc2)n[nH]c1=S`, for which the IC50 in experiment [3] is 4.51 µM (active); in [4] it was > 100 µM (inactive).

`CC(OC(=O)CNC(=O)c1ccccc1F)C(=O)Nc1nc(-c2ccccc2)cs1` (stereo not drawn): the EC50 in experiment [2] is 1.5 µM (active).

For `CC(=O)/C(C#N)=C1\NC(=O)C(Cc2ccc(C)c(Cl)c2)S1` (stereo not drawn), the CC50 in [6] is 20.6 µM (active). For the same compound, the IC50 in experiment [7] is 6.72 µM (active).

Regarding `C[C@H](CO)N1C[C@H](C)[C@@H](CN(C)S(=O)(=O)c2ccc(Cl)cc2)Oc2c(NC(=O)Nc3ccccc3)cccc2C1=O`, the AC50 (commonly the concentration giving half of the maximal activity seen) in experiment [15] is 6.84 µM (active).

Consider `C[C@@H]1CN([C@@H](C)CO)C(=O)c2cccc(NC(=O)Nc3ccc(C(F)(F)F)cc3)c2O[C@H]1CN(C)S(=O)(=O)c1cccs1`, for which the AC50 in experiment [15] was 4.64 µM (active).

Consider `C[C@@H]1CCCCO[C@@H](CN(C)CC2CCCCC2)[C@@H](C)CN([C@H](C)CO)C(=O)c2cc(NC(=O)Nc3cccc4ccccc34)ccc2O1`, for which, in experiment [15], the AC50 was 0.757 µM (active).

For the compound `Cc1ccc(S(=O)(=O)Nc2ccc3c(c2)CC(=O)N([C@H](C)CO)C[C@@H](C)[C@H](CN(C)Cc2ccccc2)O3)cc1`, the AC50 in experiment [15] is 1.79 µM (active).

Take `Cc1cc(-c2nnc(S)n2/N=C/c2sccc2C)[nH]n1`: the figures for the IC50 in experiment [3], in experiment [4] and in experiment [16] were 2.44 µM (active), > 100 µM (inactive) and 74.9 µM (active), respectively.

Turning to `Sc1nnc(COc2ccccc2)n1/N=C/c1ccco1`, the 50% inhibitory concentration (IC50) in experiment [3] is 3.38 µM (active); in [4], > 100 µM (inactive).
